# Source: US20070134178A1, “Skin lightening complex” (priority 2005, published 2007)
# Tests used:
# [1] = about 20% HQ in the complex, solvent mixture of two solvents of different polarity index
# From the text: Although the melanin-inhibiting effectiveness of HQ is desirable, water-based formulations containing high concentration HQ are difficult to prepare due to limitations in its solubility.
# [2] = 25° C; cited from earlier work
compound,measurement,setting,value
"Oc1ccc(O)cc1 [HQ, 1,4-benzenediol]",times more HQ dissolved in the solvent mixture than in aqueous media,[1],about 38.5 times
same,HQ solubility in aqueous media,[2],up to 7.3 g/L
